In article PMC7280531, “A PROTAC peptide induces durable β-catenin degradation and suppresses Wnt-dependent intestinal cancer” (Cell Discovery, 2020):
Where a SMILES comes first, the peptide text is derived from it. Bridges are numbered along the chain shown (N, C = ends). [ ]: non-standard residue; d: D form. The star is where a group is joined. R8 = C=CCCCCCC[C@@](C)(N)C(=O)O; S5 = C=CCCC[C@](C)(N)C(=O)O; Cbz = O=C(OCc1ccccc1)*; Ahx = NCCCCCC(=O)O

Columns and labels:
[1] = molecular target: T1, β-catenin (Homo sapiens, UniProt P35222); experiment: β-catenin immunoblotting / immunoprecipitation in HEK293T cells
T1 sequence (P35222 1-781): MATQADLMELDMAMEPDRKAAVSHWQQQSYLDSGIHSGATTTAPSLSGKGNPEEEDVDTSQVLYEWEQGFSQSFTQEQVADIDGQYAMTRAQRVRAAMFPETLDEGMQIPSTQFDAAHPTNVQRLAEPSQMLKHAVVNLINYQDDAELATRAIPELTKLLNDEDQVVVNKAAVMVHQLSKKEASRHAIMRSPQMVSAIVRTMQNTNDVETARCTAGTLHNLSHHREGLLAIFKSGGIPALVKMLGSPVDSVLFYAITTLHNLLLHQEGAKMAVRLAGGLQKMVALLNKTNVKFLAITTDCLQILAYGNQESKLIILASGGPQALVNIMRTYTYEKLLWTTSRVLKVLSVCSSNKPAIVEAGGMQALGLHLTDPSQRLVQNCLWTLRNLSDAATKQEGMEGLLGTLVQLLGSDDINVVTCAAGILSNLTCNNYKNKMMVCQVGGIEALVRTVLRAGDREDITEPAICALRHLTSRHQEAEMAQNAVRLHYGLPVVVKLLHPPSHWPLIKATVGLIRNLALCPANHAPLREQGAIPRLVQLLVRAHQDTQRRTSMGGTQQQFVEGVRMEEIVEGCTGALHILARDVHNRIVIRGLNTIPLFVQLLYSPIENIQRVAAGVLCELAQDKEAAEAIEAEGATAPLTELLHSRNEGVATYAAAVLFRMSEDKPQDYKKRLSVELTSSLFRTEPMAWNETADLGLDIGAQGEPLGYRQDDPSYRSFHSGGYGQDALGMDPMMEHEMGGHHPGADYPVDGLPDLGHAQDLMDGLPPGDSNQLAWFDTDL
Description: The relative band intensity was quantified with ImageJ and normalized to GAPDH.
For immunoprecipitation, the cells were lysed in TNE lysis buffer (50 mM Tris-HCl, pH 8.0, 150 mM NaCl, 1% Nonidet P-40, and protease inhibitor cocktail). […] After 18,000×g centrifugation for 10 min, the lysates were immunoprecipitated with specific antibody and protein A-Sepharose beads and then washed the beads with TNE buffer for three times before immunoblotting.

[2] = tested on: β-catenin; experiment: β-catenin immunoblotting in colorectal cancer cells (HCT116, SW480, LoVo); format: cell-based; conditions: 50 μM xStAx-VHLL, 24 h
Description: Relative
β-catenin protein level was quantified with ImageJ and normalized to GAPDH. Data […]
(b) LoVo cells were treated with 50 μM xStAx (xS), 50 μM
immunoblotting. (c, d) LoVo (c) and SW480 (d) cells were treated with different

[3] = tested on: APC^−/− organoids; experiment: APC^−/− mouse intestinal organoid culture; format: cell-based; conditions: 10 μM MSAB or 50 μM xStAx-VHLL, 4 days
[4] = cited from earlier work
From the text: Peptide stapling chemistry developed by Verdine and coworkers, takes advantage of ruthenium-catalyzed metathesis to crosslink the side chains of paired anchoring residues at suitable positions, and has been successfully applied to design various peptide inhibitors with improved proteolytic stability, membrane permeability, and thus biological activity[11],[12]. Modeled after the same Axin-derived peptide motif, we and Verdine la ... || There is more space for the improvement of the working efficacy of xStAx-VHLL. The VHL peptide ligand inserted in this study consists of natural amino acids, which could be degraded once the PROTAC peptide enters the cell. Non-natural residues substitution instead of original ones, such as reported hydroxyproline to replace regular proline[31],[32], could be an effective approach to enhance the proteolytic resistance of PROTAC. It was previously reported that peptide double-stapling at both N-terminals and C-terminals rather than single stapling conferred striking protease resistance upon the ...

[5] = molecular target: T2, β-catenin (133-665) (Homo sapiens, UniProt P35222); experiment: Isothermal titration calorimetry (ITC) of peptides with purified β-catenin
T2 sequence (P35222 133-665): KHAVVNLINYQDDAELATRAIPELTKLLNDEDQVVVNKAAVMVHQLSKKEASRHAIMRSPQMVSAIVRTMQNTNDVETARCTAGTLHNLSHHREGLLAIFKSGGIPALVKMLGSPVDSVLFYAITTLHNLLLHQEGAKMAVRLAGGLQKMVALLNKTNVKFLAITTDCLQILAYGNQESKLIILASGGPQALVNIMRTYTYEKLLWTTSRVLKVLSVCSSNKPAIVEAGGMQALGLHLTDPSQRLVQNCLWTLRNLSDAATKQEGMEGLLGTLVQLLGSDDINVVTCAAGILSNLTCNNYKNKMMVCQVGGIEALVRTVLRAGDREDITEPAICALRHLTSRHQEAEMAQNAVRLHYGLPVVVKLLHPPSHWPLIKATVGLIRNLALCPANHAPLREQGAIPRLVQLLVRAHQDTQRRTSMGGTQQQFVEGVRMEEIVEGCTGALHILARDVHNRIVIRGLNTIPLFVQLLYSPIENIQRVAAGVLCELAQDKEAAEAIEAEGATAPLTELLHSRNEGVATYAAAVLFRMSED
Description: The binding ability of the peptides with purified
β-catenin protein in vitro.
(a) Isothermal titration calorimetry (ITC) analysis to measure the interaction between
Biotinylated peptides were incubated with streptavidin beads and then employed to
The input β-catenin protein level
was stained with Coomassie brilliant blue. The pulled down β-catenin was
immunoblotted with anti-His antibody, and relative band intensity was quantified.

## CC(C)C[C@@H](C=O)NC(=O)[C@H](CC(C)C)NC(=O)[C@H](CC(C)C)NC(=O)OCc1ccccc1 [MG132, reference compound] (Cbz-Leu-Leu-Leu-aldehyde)
[1]; peptides 70 μM and MG132 10 μM, 16 h
  effect of proteasome inhibitor on xStAx-VHLL-induced β-catenin degradation: blocked β-catenin degradation

## COC(=O)c1cccc(NS(=O)(=O)c2ccc(C)cc2)c1 [MSAB, reference compound]
[2]; HCT116 and SW480, 10 μM MSAB
  β-catenin protein level, MSAB versus xStAx-VHLL: decreased β-catenin protein to a comparable level
[2]; LoVo, 10 μM MSAB
  β-catenin protein level, MSAB versus xStAx-VHLL: had no effect
[3]
  APC^−/− organoid survival, MSAB versus xStAx-VHLL: minimal effect
[1]; 10 μM MSAB, 50 μM xStAx-VHLL (legend: 70 μM, Wnt3a CM), 24 h
  β-catenin protein level, MSAB versus xStAx-VHLL: decreased β-catenin protein to a comparable level
[1]; MSAB 10 μM or xStAx-VHLL 70 μM 24 h, then fresh medium 24 or 48 h
  β-catenin level after wash-out of the drug: restored after 24 h

## CC[C@H](C)[C@@H]1NC(=O)[C@](C)(NC(=O)[C@H](CCC(N)=O)NC(=O)[C@@H]2CCCN2C(C)=O)CCCCCCC=CCCC[C@@](C)(C(=O)N[C@@H](CCCNC(=N)N)C(=O)N[C@H](C(=O)N[C@@H](CCSC)C(=O)N[C@@H](CCCCN)C(N)=O)C(C)C)NC(=O)[C@H](C(C)C)NC(=O)[C@H](Cc2c[nH]cn2)NC(=O)[C@H](CCC(N)=O)NC(=O)[C@H](CC(=O)O)NC(=O)[C@H](CC(C)C)NC1=O [SAHPA1, reference compound] (Ac-PQ[R8]ILDQHV[S5]RVMK-NH2; staple 3-10)
[4]
  ability to penetrate the cell membrane: capable of penetrating the cell membrane
[5]
  Kd: 38 µM

## Cc1ncsc1-c1ccc(CNC(=O)[C@@H]2C[C@@H](O)CN2C(=O)[C@@H](NC(=O)C2(C#N)CC2)C(C)(C)C)cc1 [VH-298, reference compound]
[2]; LoVo, 100 μM inhibitor
  effect of VHL ligase inhibitor on xStAx-VHLL-mediated β-catenin degradation: blocked it
[1]; Wnt3a CM, 70 μM xStAx-VHLL, 100 μM inhibitor, 24 h
  effect of VHL ligase inhibitor on xStAx-VHLL-mediated β-catenin degradation: blocked it

## CC[C@H](C)[C@@H]1NC(=O)[C@@](C)(NC(=O)[C@H](CCCNC(=N)N)NC(=O)[C@@H]2CCCN2C(=O)[C@H](Cc2c[nH]c3ccccc23)NC(=O)[C@H](CCCNC(=N)N)NC(=O)[C@H](CCCNC(=N)N)NC(C)=O)CCCC=CCCC[C@@](C)(C(=O)N[C@@H](Cc2c[nH]cn2)C(=O)N[C@H](C(=O)N[C@@H](CCCNC(=N)N)C(=O)N[C@@H](CCCNC(=N)N)C(=O)N[C@H](C(=O)N[C@@H](Cc2c[nH]c3ccccc23)C(=O)N[C@@H](CCCNC(=N)N)C(N)=O)C(C)C)C(C)C)NC(=O)[C@H](CC(=O)O)NC(=O)[C@H](CC(C)C)NC1=O [xStAx] (Ac-RRWPR[S5]ILD[S5]HVRRVWR-NH2; staple 6-10)
[4]
  ability to penetrate the cell membrane: capable of penetrating the cell membrane

## CC[C@H](C)[C@@H]1NC(=O)[C@](C)(NC(=O)[C@H](CCC(N)=O)NC(=O)[C@@H]2CCCN2C(C)=O)CCCCCCC=CCCC[C@@](C)(C(=O)N[C@@H](CCCNC(=N)N)C(=O)N[C@H](C(=O)N[C@@H](CCSC)C(=O)N[C@@H](CCCCN)C(=O)NCCCCCC(=O)N[C@@H](C)C(=O)N[C@@H](CC(C)C)C(=O)N[C@@H](C)C(=O)N2CCC[C@H]2C(=O)N[C@@H](Cc2ccc(O)cc2)C(=O)N[C@H](C(=O)N2CCC[C@H]2C(N)=O)[C@@H](C)CC)C(C)C)NC(=O)[C@H](C(C)C)NC(=O)[C@H](Cc2c[nH]cn2)NC(=O)[C@H](CCC(N)=O)NC(=O)[C@H](CC(=O)O)NC(=O)[C@H](CC(C)C)NC1=O [SAHPA1-VHLL] (Ac-PQ[R8]ILDQHV[S5]RVMK[Ahx]ALAPYIP-NH2; staple 3-10)
[5]
  Kd: 55 µM
